According to US11396664B2, “Replicative transposon system” (Max-Delbrück-Centrum für Molekulare Medizin in der …, priority 2016, dated 2022):

Tested on: Helraiser transposase, wild type (WT), SEQ ID NO: 1, consensus Helibat1 Helitron transposase from the bat Myotis lucifugus
Assay: Colorimetric ATPase assay (ATP hydrolysis, malachite green)
Type: biochemical
Conditions: purified transposase; 50 mM HEPES pH 7.5, 100 mM NaCl, 1 mM DTT, 2 mM MgCl2, 37° C; ATP 0.0078 to 1 mM
Description: Protein Expression and Purification
Point mutations were made using the QuikChange site-directed mutagenesis method (Agilent). Baculovirus production and protein expression were performed by the Protein Expression Laboratory at the National Cancer Institute as follows:
Cell pellets were resuspended in Nickel affinity column binding buffer (20 mM NaH2PO4 pH 7.4, 500 mM NaCl, 50 mM imidazole, 1 mM TCEP). All subsequent steps were performed at 4° C. Lysis was done by incubating the cells on ice for 30 minutes, then sonication with a Misonix Sonicator 3000 (5×20-sec pulses with 3 minute pause at 82 Watts). […]
ATP hydrolysis was analyzed by measuring the formation of free phosphate (Pi) as a function of time using procedures adapted from Baykov et al. (Baykov A A, Evtushenko O A, Avaeva S M. A malachite green procedure for orthophosphate determination and its use in alkaline phosphatase-based enzyme immunoassay. Anal Biochem 171, 266-270 (1988)). […] An aliquot (150 μl) of a 1 mM malachite green stock solution was added to each well, and the absorbance at 650 nm was measured using a Molecular Devices Spectramax M5 microplate reader. The amount of phosphate released was calculated by comparison to a standard curve generated using KH2PO4. […]

Nc1ncnc2c1ncn2[C@@H]1O[C@H](COP(=O)(O)OP(=O)(O)OP(=O)(O)O)[C@@H](O)[C@H]1O [ATP]
Km: 46 µM | kcat (ATP hydrolysis): 6.8 ± 0.11 s⁻¹
